US4596804A, “Dibenz[b,e]oxepin compounds” (Kyowa Hakko Kogyo Co., Ltd., priority 1983, dated 1986)
Counter-ions that a name gives are not always drawn.

Experiments:
[1] = test system: passive cutaneous anaphylaxis (PCA) reaction; test: 48-hour homologous PCA (passive cutaneous anaphylaxis) test in rats, antiallergic activity; assay type: in vivo, male Wistar strain rats; details: minimum dose with at least one positive among three rats; for minimal effective dose: Rattus norvegicus, po, read-out: Antiallergic Activity, MED (minimum effective dose); for Antiallergic Activity, MED (minimum effective dose): oral
Method: The 48-hour homologous PCA (passive cutaneous anaphylaxis) test was employed. As test animals, male Wistar strain rats weighing 180 to 220 g were used for preparation of antiserum and those weighing 120 to 140 g for PCA test.
(A) Preparation of rat antiserum to EWA
Rat antiserum to egg white albumin (EWA) was prepared by the method of Stotland Share [Canad. J. Physiol. Pharmacol. 52, 1114 (1974)] as follows. One mg of EWA was mixed with 20 mg of aluminum hydroxide gel and 0.5 ml of pertussis/diphtheria/tetanus mixed vaccine, and the mixture was subcutaneously injected to each rat through the sole in four portions. After 14 days, blood samples were taken from the carotid artery, and the serum was separated and stored at -80° C. The 48-hour homologous PCA titer of this antiserum was 1:32.
(B) 48-hour homologous PCA test in rats
Three rats for each group were employed for 48-hour homologous PCA test. Rats were passively sensitized by injecting intradermally at the two spots on the shaved back 0.05 ml portions of the antiserum which was diluted 8-fold with physiological saline. After 47 hours, test compounds or the solutions thereof (physiological saline solution or CMC solution) were orally administered to the rats, and after one hour, the animals were injected intraveneously to tail vein 0.5 ml/100 g body weight of saline containing 2 mg of EWA, together with 1% Evans blue. Thirty minutes after antigen challenge, the rats were sacrificed by exanguination, and the skin was cut out, followed by the evaluation of the intensity of PCA reaction by expressing the amounts of dye leaked. The amounts of dye leaked from the blue-stained section were measured by the metod of Katayama, et al [Microbiol. Immunol. 22, 89 (1978)] as follows. A portion of the blue-stained section cut out with scissors was placed in a test tube containing 1 ml of 1N KOH solution, and incubated at 37° C. for 24 hours. 9 ml of a mixture of 0.6N phosphoric acid and acetone (5:13) was added, and the mixture was shaken and subjected to centrifugation at 2500 rpm for 10 minutes. Then, the absorbance of the supernatant liquid at 620 mμ was measured, and the amount of eluted dye was determined by using a calibration curve previously prepared. The average of the measurements for the two positions was taken as the value for each individual, and the inhibition rate for each rat was calculated from the following formula: [formula]
PCA inhibiting activity was evaluated as positive when the inhibition rate was 50% or higher, and the minimum dose required to achieve positive result for at least one among the three rats in each group was taken as the minimum effective dose (MED).

[2] = test system: male dd strain mice; test: Acute toxicity (minimum lethal dose); assay type: in vivo; details: mortality seven days after administration; for Acute Toxicity (MLD) ip: intraperitoneal
Method: The present compound was administered orally (p.o. 300 mg/kg) or intraperitoneally (i.p. 100 mg/kg) to several groups of male dd strain mice weighing 19 to 21 g (each group consisting of three mice), and MLD (minimum lethal dose) was determined by observing the mortality seven days after administration.

Row | Compound | minimal effective dose [1] [mg/kg] | Acute Toxicity (MLD) ip [2] [mg/kg] | Acute Toxicity (MLD) PO [2] [mg/kg] | Antiallergic Activity, MED (minimum effective dose) [1] [mg/kg]
1 | CCOC(=O)c1ccc2c(c1)C(NC1CN3CCC1CC3)c1ccccc1CO2 (stereo not drawn) [Compound 17, 11-(3-Quinuclidinyl)amino-6,11-dihydrodibenz[b,e]oxepin-2-carboxylic acid ethyl ester] | 0.1 | > 100 | > 300 | 
2 | CCOC(=O)OC(C)OC(=O)c1ccc2c(c1)C(SCCN(C)C)c1ccccc1CO2 (stereo not drawn) [Compound 20, 11-(N,N--dimethylaminoethyl)thio-6,11-dihydrodibenz[b,e]oxepin-2-carboxylic acid (1-ethoxycarbonyloxy)ethyl ester] | 0.1 | > 100 | > 300 | 
3 | CN1CCN(C2c3ccccc3COc3ccc(C(=O)O)cc32)CC1 (stereo not drawn) [Compound 3, 11-(4-Methylpiperazino)-6,11-dihydrodibenz[b,e]oxepin-2-carboxylic acid diacetate.2H2 O] | 1 | > 100 | > 300 | 
4 | CCOC(=O)OC(C)OC(=O)c1ccc2c(c1)C(N1CCN(C)CC1)c1ccccc1CO2 (stereo not drawn) [Compound 19, 11-(4-Methylpiperazino)-6,11-dihydrodibenz[b,e]oxepin-2-carboxylic acid (1-ethoxycarbonyloxy)ethyl ester] | 1 | > 100 | > 300 | 
5 | CN(C)CCNC1c2ccccc2COc2ccc(C(N)=O)cc21 (stereo not drawn) [Compound 14, 11-(N,N--dimethylaminoethyl)amino-6,11-dihydrodibenz[b,e]oxepin-2-carboamide] | 1 | > 100 | 300 | 
6 | CN(C)CCSC1c2ccccc2COc2ccc(C#N)cc21 (stereo not drawn) [Compound 10, 11-(N,N--dimethylaminoethyl)thio-6,11-dihydrodibenz[b,e]oxepin-2-carbonitrile] | 1 | > 100 | > 300 | 
7 | CCOC(=O)c1ccc2c(c1)C(OCCN(C)C)c1ccccc1CO2 (stereo not drawn) [Compound 11, 11-(N,N--dimethylaminoethyl)oxy-6,11-dihydrodibenz[b,e]oxepin-2-carboxylic acid ethyl ester] | 1 | > 100 | > 300 | 
8 | CN1CCN(C2c3ccccc3COc3ccc(-c4nnn[nH]4)cc32)CC1 (stereo not drawn) [Compound 6, 11-(4-Methylpiperazino)-2-(5-tetrazolyl)-6,11-dihydrodibenz[b,e]oxepin Na salt] | 10 | > 100 | > 300 | 
9 | CN1CCN(C2c3ccccc3COc3ccc(C(N)=O)cc32)CC1 (stereo not drawn) [Compound 4, 11-(4-Methylpiperazino)-6,11-dihydrodibenz[b,e]oxepin-2-carboamide] | 10 | > 100 | > 300 | 
10 | CN(C)CCSC1c2ccccc2COc2ccc(C(=O)O)cc21 (stereo not drawn) [Compound 8, 11-(N,N--dimethylaminoethyl)thio-6,11-dihydrodibenz[b,e]oxepin-2-carboxylic acid acetate] |  | > 100 | > 300 | 10
11 | CCOC(=O)c1ccc2c(c1)C(SCCN(C)C)c1ccccc1CO2 (stereo not drawn) [Compound 7, 11-(N,N--dimethylaminoethyl)thio-6,11-dihydrodibenz[b,e]oxepin-2-carboxylic acid ethyl ester] | 10 | > 100 | > 300 | 
12 | CN1CCN(C2c3ccccc3COc3ccc(C(=O)O)cc32)CC1 (stereo not drawn) [Compound 21, 11-(4-Methylpiperazino)-6,11-dihydrodibenz[b,e]oxepin-2-carboxylic acid dihydrochloride.1/4H2 O] |  | > 100 | > 300 | 1
13 | CN(C)CCSC1c2ccccc2COc2ccc(C(=O)O)cc21 (stereo not drawn) [Compound 22, 11-(N,N--dimethylaminoethyl)thio-6,11-dihydrodibenz[b,e]oxepin-2-carboxylic acid hydrochloride.1/2H2 O] |  | > 100 | > 300 | 0.1
